Test results from ChEMBL document CHEMBL4354807, “Natural Product Albiziabioside A Conjugated with Pyruvate Dehydrogenase Kinase Inhibitor Dichloroacetate To Induce Apoptosis-Ferroptosis-M2-TAMs Polarization for Combined Cancer Therapy” (J Med Chem, 2019).
Activity calls are given as the source filed them. The rule behind the calls is not given here.

Columns and labels:
[1] = Toxicity in BALB/c nude mouse xenografted with human MCF7 cells assessed as effect on body weight at 2 mg/kg, iv administered every 2 days for 2 weeks measured after 14 days; format: organism-based; details: in vivo, 336 h
L02 = assay: Cytotoxicity against human LO2 cells assessed as reduction in cell viability after 72 hrs by MTT assay; format: cell-based; details: L02, 72 h
MCF7 [2] = assay: Induction of ferroptosis in human MCF7 cells assessed as reduction in cellular GSH level at 2 uM after 24 hrs by microplate reader assay; format: functional, cell-based
MCF7 [3] = assay: Induction of ferroptosis in human MCF7 cells assessed as cell death at 2 uM pretreated with iron chelating agent deferoxamine followed by compound treatment by MTT assay; format: functional, cell-based
MCF7 [4] = assay: Induction of apoptosis in human MCF7 cells assessed as early apoptotic cells at 2 uM after 24 hrs by Annexin V-FITC/propidium iodide staining-based flow cytometric analysis (reference value: 3.53 %); format: functional
MCF7 [5] = assay: Downregulation of PDK expression in human MCF7 cells after 48 hrs by Western blot analysis; format: functional, cell-based
[6] = Drug metabolism assessed as carboxylesterase (unknown origin)-mediated compound cleavage at aniline-amide bond after 2 hrs by HPLC analysis; format: ADME; details: human
[7] = Toxicity in BALB/c nude mouse xenografted with human MCF7 cells assessed as effect on ALT level in blood at 2 mg/kg, iv administered every 2 days for 2 weeks measured after 14 days; format: organism-based; details: in vivo, 336 h
MCF7 [8] = assay: Induction of ferroptosis in human MCF7 cells assessed as cell death at 2 uM pretreated with exogenous iron Fe2+ followed by compound treatment by MTT assay; format: functional, cell-based
Mus musculus [9] = assay: Modulation of tumor immunosuppressive activity in BALB/c mouse xenografted with mouse 4T1 cells assessed as increase in TNFalpha expression in tumor administered intratumorally every other day for 14 days measured at 2 days post-last dose by ELISA; format: functional, organism-based
A-375 = assay: Synergistic anticancer activity against human A375 cells expressing assessed as combination index after 72 hrs by MTT assay; format: functional
[10] = molecular target: [Pyruvate dehydrogenase (acetyl-transferring)] kinase isozyme 1, mitochondrial (Homo sapiens) (UniProt Q15118); assay: Inhibition of PDK1 (unknown origin) in plasma using PDK tide as substrate measured after 90 mins in presence of ATP by ADP-Glo luminescent kinase assay; format: cell-free
[11] = Toxicity in BALB/c nude mouse xenografted with human MCF7 cells assessed as effect on liver at 2 mg/kg, iv administered every 2 days for 2 weeks measured after 14 days by hematoxylin and eosin staining based histopathological analysis; format: organism-based; details: in vivo, 336 h
Mus musculus [12] = assay: Modulation of tumor immunosuppressive activity in BALB/c mouse xenografted with mouse 4T1 cells assessed as increase in IFNgamma expression in tumor administered intratumorally every other day for 14 days measured at 2 days post-last dose by ELISA; format: functional, organism-based
MCF7 [13] = assay: Induction of apoptosis in human MCF7 cells assessed as late apoptotic cells at 2 uM after 24 hrs by Annexin V-FITC/propidium iodide staining-based flow cytometric analysis (reference value: 2.97 %); format: functional
MCF7 [14] = assay: Induction of apoptosis in human MCF7 cells assessed as increase in caspase 9 expression at 2 uM after 48 hrs by Western blot analysis relative to control; format: functional
4T1 [15] = assay: Inhibition of glycolysis in mouse 4T1 cells expressing PDK assessed as reduction in intracellular lactate level at 2 uM after 6 hrs by microplate reader assay; format: functional, cell-based
MCF7 [16] = assay: Induction of mitochondrial dysfunction in human MCF7 cells assessed as cell population with mitochondrial membrane potential collapse at 2 uM after 24 hrs by JC1 staining-based FACScalibur flow cytometry analysis (reference value: 2.74 %); format: functional
MCF7 [17] = assay: Downregulation of GPX4 expression in human MCF7 cells at 2 uM after 48 hrs by Western blot analysis; format: functional, cell-based
Mus musculus [18] = assay: Modulation of tumor immunosuppressive activity in BALB/c mouse xenografted with mouse 4T1 cells assessed as increase in IFNgamma expression in serum administered intratumorally every other day for 14 days measured at 2 days post-last dose by ELISA; format: functional, organism-based
4T1 [19] = assay: Induction of M2-TAM polarization in mouse 4T1 cells assessed as decrease in Arg1 mRNA expression at 2 uM after 48 hrs by Western blot analysis relative to control; format: functional
[20] = Selectivity index, ratio IC50 for cytotoxicity against human HBMEC cells assessed as reduction in cell viability after 72 hrs by MTT assay to IC50 for anticancer activity against human MCF7 cells assessed as reduction in cell viability after 72 hrs by MTT assay
[21] = Toxicity in BALB/c nude mouse xenografted with human MCF7 cells assessed as effect on AST level in blood at 2 mg/kg, iv administered every 2 days for 2 weeks measured after 14 days; format: organism-based; details: in vivo, 336 h
[22] = Selectivity index, ratio IC50 for cytotoxicity against human LO2 cells assessed as reduction in cell viability after 72 hrs by MTT assay to IC50 for anticancer activity against human HCT116 cells assessed as reduction in cell viability after 72 hrs by MTT assay; format: toxicity, cell-based; details: LO2 cells versus HCT116 cells, read-out: Ratio IC50
Mus musculus [23] = assay: Modulation of tumor immunosuppressive activity in BALB/c mouse xenografted with mouse 4T1 cells assessed as increase in IL12 expression in tumor administered intratumorally every other day for 14 days measured at 2 days post-last dose by ELISA; format: functional, organism-based
[24] = Selectivity index, ratio IC50 for cytotoxicity against human LO2 cells assessed as reduction in cell viability after 72 hrs by MTT assay to IC50 for anticancer activity against mouse 4T1 cells assessed as reduction in cell viability after 72 hrs by MTT assay
[25] = Selectivity index, ratio IC50 for cytotoxicity against human LO2 cells assessed as reduction in cell viability after 72 hrs by MTT assay to IC50 for anticancer activity against human A375 cells assessed as reduction in cell viability after 72 hrs by MTT assay; format: toxicity, cell-based; details: LO2 cells versus A375 cells, read-out: Ratio IC50
4T1 [26] = assay: Induction of M2-TAM polarization in mouse 4T1 cells assessed as decrease in MRC1 protein level at 2 uM after 48 hrs by Western blot analysis relative to control; format: functional
MCF7 [27] = assay: (§1) Induction of metabolic reversal from aerobic glycolysis to oxidative phosphorylation in human MCF7 cells assessed as effect on extracellular acidification rate at 2 uM pretreated for 4 hrs followed by glucose addition after 25 mins followed by subsequent addition of oligomycin A after 50 mins followed by 2-DG addition after 80 mins by seahorse XF24 extracellular flux analyzer assay; format: functional, cell-based
MCF7 [28] = assay: as §1, with “as […]” for “as effect on extracellular acidification”, “for 3” for “for 4”, “by oligomycin A” for “by glucose”, “of FCCP” for “of oligomycin A”, “by antimycin/rotenone” for “by 2-DG”; format: functional, cell-based
4T1 [29] = assay: Reversal of immunosuppression against mouse 4T1 cells implanted in BALB/c mouse assessed as growth inhibition of primary tumor at 2 mg/kg administered intratumorally every 2 days for 2 weeks measured after 14 days; format: functional, organism-based
[30] = Toxicity in BALB/c nude mouse xenografted with human MCF7 cells assessed as effect on blood urea nitrogen at 2 mg/kg, iv administered every 2 days for 2 weeks measured after 14 days; format: organism-based; details: in vivo, 336 h
HCT-116 = assay: Synergistic anticancer activity against human HCT116 cells expressing assessed as combination index after 72 hrs by MTT assay; format: functional
[31] = Stability of compound in plasma (unknown origin) 37 degree C measured after 2 hrs by HPLC analysis; format: ADME, cell-free

CC1(C)CC[C@]2(C(=O)O)CC[C@]3(C)C(=CC[C@@H]4[C@@]5(C)CC[C@H](O[C@@H]6O[C@H](CO[C@@H]7OC[C@H](O)[C@H](O)[C@H]7O)[C@@H](O)[C@H](O)[C@H]6NC(=O)C(Cl)Cl)C(C)(C)[C@@H]5CC[C@]43C)[C@@H]2C1
Activity [1]: Non-Toxic | IC50 (L02): 53.1 µM | Activity (MCF7 [2]): Active | Activity (MCF7 [3]): inactive | Activity (MCF7 [4]): 25.16% | Activity (MCF7 [5]): Dose-dependent effect | Drug metabolism [6]: Metabolite_Detected | Activity [7]: Non-Toxic | Activity (MCF7 [8]): Active | Activity (Mus musculus [9]): Active | CI (A-375): 0.7 | inhibition [10]: inactive | Activity [11]: Non-Toxic | Activity (Mus musculus [12]): Active | Activity (MCF7 [13]): 22.92% | fold change (FC) (MCF7 [14]): 6 | inhibition (4T1 [15]): Active | Activity (MCF7 [16]): 46.39% | Activity (MCF7 [17]): Active | Activity (Mus musculus [18]): Active | fold change (FC) (4T1 [19]): 2.1 | Ratio IC50 [20]: 88.83 | Activity [21]: Non-Toxic | selectivity ratio at 72 h [22]: 12.7 | Activity (Mus musculus [23]): Active | Ratio IC50 [24]: 40.56 | selectivity ratio at 72 h [25]: 14.1 | fold change (FC) (4T1 [26]): 3.4 | Activity (MCF7 [27]): Active | Activity (MCF7 [28]): inactive | growth inhibition (GI) (4T1 [29]): Active | Activity [30]: Non-Toxic | CI (HCT-116): 0.22 | Stability [31]: Stable
